Measured values taken from ChEMBL document CHEMBL1157132, “Hydrolyzable tannins of tamaricaceous plants. III. Hellinoyl- and macrocyclic-type ellagitannins from Tamarix nilotica” (J Nat Prod, 2010).

Tests used:
[1] = Cytotoxicity against human HGF cells after 48 hrs by MTT assay; type: cell-based
HSC-3 = experiment: Cytotoxicity against human HSC3 cells after 48 hrs by MTT assay; type: functional; settings: HSC-3, 48 h
HSC-2 = experiment: Cytotoxicity against human HSC2 cells after 48 hrs by MTT assay; type: functional; settings: HSC-2, 48 h
HL-60 = experiment: Cytotoxicity against human HL60 cells after 48 hrs by MTT assay; type: functional; settings: HL-60, 48 h
[2] = Cytotoxicity against human HPC cells after 48 hrs by MTT assay; type: cell-based
HSC-4 = experiment: Cytotoxicity against human HSC4 cells after 48 hrs by MTT assay; type: functional; settings: HSC-4, 48 h
[3] = Cytotoxicity against human HPLF cells after 48 hrs by MTT assay; type: cell-based

O=C(O[C@@H]1O[C@@H]2COC(=O)c3cc(O)c(O)c(O)c3-c3c(cc(O)c(O)c3O)C(=O)O[C@H]2[C@H](OC(=O)c2cc(O)c(O)c(O)c2)[C@H]1OC(=O)c1cc(O)c(O)c(O)c1Oc1cc2c(c(O)c1O)Oc1cc(cc(O)c1O)C(=O)O[C@@H]1O[C@@H]3COC(=O)c4cc(O)c(O)c(O)c4-c4c(cc(O)c(O)c4O)C(=O)O[C@H]3[C@H](OC(=O)c3cc(O)c(O)c(O)c3)[C@H]1OC2=O)c1cc(O)c(O)c(O)c1 [HIRTELLIN B] gave a CC50 at 48 h [1] of 177 µM, a CC50 (HSC-3) of 99.3 µM and a CC50 (HSC-2) of 91.7 µM. It also gave a CC50 (HL-60) of 8.71 µM, a CC50 at 48 h [2] of 78.5 µM and a CC50 (HSC-4) of 74 µM. For the same compound, the CC50 at 48 h [3] was 293 µM.
In the case of O=C1O[C@@H]2O[C@@H]3COC(=O)c4cc(O)c(O)c(O)c4-c4c(cc(O)c(O)c4O)C(=O)O[C@H]3[C@H](OC(=O)c3cc(O)c(O)c(O)c3)[C@H]2OC(=O)c2cc(Oc3c(C(=O)O)cc(O)c(O)c3O)c(O)c(O)c2Oc2cc1cc(O)c2O [NILOTININ M4], the CC50 at 48 h [1] was 325 µM, the CC50 (HSC-3) was 57 µM and the CC50 (HSC-2) was 35 µM. It also gave a CC50 (HL-60) of 30.6 µM, a CC50 at 48 h [2] of 263 µM and a CC50 (HSC-4) of 62 µM. For the same compound, the CC50 at 48 h [3] was 361 µM.
With O=C(O[C@@H]1O[C@@H]2COC(=O)c3cc(O)c(O)c(O)c3-c3c(cc(O)c(O)c3O)C(=O)O[C@H]2[C@H](OC(=O)c2cc(O)c(O)c(O)c2)[C@H]1OC(=O)c1cc(O)c(O)c(O)c1Oc1cc2c(c(O)c1O)Oc1cc(cc(O)c1O)C(=O)O[C@@H]1O[C@H](CO)[C@@H](O)[C@H](OC(=O)c3cc(O)c(O)c(O)c3)[C@H]1OC2=O)c1cc(O)c(O)c(O)c1 [NILOTININ D8] the CC50 at 48 h [1] was 318 µM, the CC50 (HSC-3) was 48.3 µM and the CC50 (HSC-2) was 32.3 µM. It also gave a CC50 (HL-60) of 22.9 µM, a CC50 at 48 h [2] of 278 µM and a CC50 (HSC-4) of 54.3 µM. For the same compound, the CC50 at 48 h [3] was 358 µM.
With O=C(O)c1cc(O)c(O)c(Oc2c(C(=O)O[C@@H]3[C@@H](OC(=O)c4cc(O)c(O)c(O)c4O)[C@@H]4OC(=O)c5cc(O)c(O)c(O)c5-c5c(cc(O)c(O)c5O)C(=O)OC[C@H]4O[C@H]3O)cc(O)c(O)c2O)c1 [REMURIN B] the CC50 at 48 h [1] was 337 µM, the CC50 (HSC-3) was 63.3 µM and the CC50 (HSC-2) was 32.3 µM. It also gave a CC50 (HL-60) of 41.7 µM, a CC50 at 48 h [2] of 255 µM and a CC50 (HSC-4) of 60 µM. For the same compound, the CC50 at 48 h [3] was 375 µM.
With O=C1O[C@@H]2O[C@@H]3COC(=O)c4cc(O)c(O)c(O)c4-c4c(cc(O)c(O)c4O)C(=O)O[C@H]3[C@H](OC(=O)c3cc(O)c(O)c(O)c3)[C@H]2OC(=O)c2cc(Oc3c(C(=O)O[C@@H]4[C@@H](OC(=O)c5cc(O)c(O)c(O)c5)[C@@H]5OC(=O)c6cc(O)c(O)c(O)c6-c6c(cc(O)c(O)c6O)C(=O)OC[C@H]5O[C@H]4O)cc(O)c(O)c3O)c(O)c(O)c2Oc2cc1cc(O)c2O [TAMARIXININ A] the CC50 at 48 h [1] was 274 µM, the CC50 (HSC-3) was 54.3 µM and the CC50 (HSC-2) was 29.3 µM. The CC50 (HL-60) was 30.8 µM, the CC50 at 48 h [2] was 199 µM and the CC50 (HSC-4) was 59.3 µM. For the same compound, the CC50 at 48 h [3] was 353 µM.
With O=C(O)c1cc(O)c(O)c(Oc2c(C(=O)O[C@H]3[C@H](OC(=O)c4cc(O)c(O)c(O)c4)O[C@@H]4COC(=O)c5cc(O)c(O)c(O)c5-c5c(cc(O)c(O)c5O)C(=O)O[C@H]4[C@@H]3OC(=O)c3cc(O)c(O)c(O)c3O)cc(O)c(O)c2O)c1 [REMURIN A] the CC50 at 48 h [1] was 218 µM, the CC50 (HSC-3) was 51 µM and the CC50 (HSC-2) was 31.3 µM. It also gave a CC50 (HL-60) of 18.4 µM, a CC50 at 48 h [2] of 170 µM and a CC50 (HSC-4) of 48 µM. The CC50 at 48 h [3] was 373 µM.
